# Marks after values point to notes of the source that are not given here.
# Columns and labels:
# [1] = tested on: CPA-CLP sepsis mouse model; experiment: Combination effects of LPC and antibiotics (colistin, tobramycin, fusidin) in CPA-CLP sepsis mouse model (SEP013); single i.v. 6 hrs after CLP; format: in vivo, ICR mice; conditions: mpk: LPC 5, DW286aa 5, Colistin 5, Tobra 4, Fusidin 80, LPC + Colistin 5 + 5, LPC + Tobra 5 + 4, LPC + Fusidin 5 + 80
# Excerpt: CPA is well known as an immunosuppressive agent. […] Then, the abdomen was closed following the general procedure.
# Then, body weight and mortality changes were observed.
# [2] = tested on: CPA-induced immunosuppressive mice; experiment: Histopathology/histomorphometry of thymus and spleen in CPA-treated mice; format: in vivo, ICR mice
# Protocol: After measuring of organ weight, thymus and spleen was sampled. Sampled organs were fixed in 10% neutral buffered formalin. After paraffin embedding, 3-4 μm sections were prepared. Representative sections were stained with Hematoxylin and Eosin (H&E) for light microscopical examination. After that the histological profiles of individual organs were observed.
# The numbers of white pulps in spleen were calculated as N/histological sections (×50) using automated image analysis (analySIS Image Processing; SIS, Germany). In addition, the numbers of atrophic changes on thymic cortex/total observed number of thymus were also calculated.
# [3] = tested on: thymic CD3+, CD4+, CD8+ and TNF-α+ cells; experiment: Immunohistochemistry of thymus (cortex and medulla) in CPA-treated mice; format: in vivo, ICR mice
# Protocol: After deparraffinized, CD3 epitope retrievals were conducted in 10 mM Tris-1 mM EDTA Buffer (pH 9.0), CD4 and CD8 in 1 mM EDTA Buffer (pH 8.0), and TNF-α in 10 mM Citrate Buffer (pH 6.0) as previous methods. Primary anti-antibodies used in the invention were as following table.
# The water bath with a staining dish, containing a buffer, was preheated until the temperature reached 95-100. The staining dish was placed at room temperature and the slides were cooled for 20 minutes. After epitope retrivals, sections were immunostained as following steps
# First, the sections were incubated with methanol and 0.3% H2O2 for 30 min to block endogenous peroxidase activity at room temperature, and then rinsed three times in 0.01M phosphate buffered saline (PBS; pH 7.2) for 3 times. Then, the sections were incubated with the normal horse serum blocking solution (Vector Lab. Inc., CA, USA., dilution 1:100) for 1 hr at room temperature in a humidity chamber, to block non-specific binding of immunoglobulin, and then rinsed three times in 0.01M PBS. The sections were incubated with four types of primary antisera for 12 hrs at 4 in a humidity chamber, and then rinsed three times in 0.01M PBS. The sections were incubated with universal biotinylated secondary antibody for 1 hr at room temperature in a humidity chamber, and then rinsed three times in 0.01M PBS. The sections were incubated with ABC reagents (Vectastain Elite ABC Kit, Vector Lab. Inc., CA, USA. Dilution 1:50) for 1 hr at room temperature in a humidity chamber, and then rinsed three times in 0.01M PBS. The sections were incubated in the peroxidase substrate kit (Vector Lab. Inc., CA) for 30 seconds at room temperature, and then rinsed three times in 0.01M PBS. The sections were counterstained with the Mayer's hematoxylin solution, and then rinsed in running tap water for 30 minutes. The sections were dehydrated through 95% ethanol for 2 min and 100% ethanol for […], and then rinsed in xylene for 2 hrs. After that, the sections were observed using a cover slip with permanent mounting medium under the light microscope (Zeiss, Germany).
# Histomorphometry—Among 1000 splenic or thymic cells, the numbers (N) of immunoreactive cells (CD3+, CD4+, CD8+, and TNF-α+) were observed as N/1000 splenocytes or thymocytes using automated image analysis. In thymus, the counts were conducted in the both cortex and medulla separately.
# [4] = Body weight of CPA-CLP mice (Example 9); conditions: LPC 1, DW286 0.5, Mix 0.75 mg/kg
# Protocol: (§1) In CPA-CLP model, body weight and mortalities were measured once a day for 5 days with automatic electronic balances (Sartorius Co., Ltd., USA), once a day for 2 days in CPA-treated model. All animals were overnight fasted at CPA dosing, CLP or initial dosing to reduce differences from feeding. In addition, body weight gains were calculated as follows:
# CPA-CLP Model: Body weight at sacrifice—at CLP(5 days)
# Then, mortalities, changes in thymus and spleen weights, changes in white blood cell (WBC) number, and changes in thymic and splenic CD3+, CD4+, CD8+, and TNF-α+ cell numbers, were evaluated together with changes in bone marrow polychromatic erythrocytes contain micronuclei (MNPCE) number.
# (§2) Appropriate doses of candidate materials were dissolved in 5% human serum albumin, and subcutaneously dosed at 10 ml/kg (of body weight), 4 times 12-hr intervals from 6 hrs after CLP or 24 hrs after last CPA-dosing, respectively. In the INTACT, CPA, or CPA-CLP control groups, an equal volume of 5% human serum albumin was dosed by the same procedure.
# [5] = tested on: bone marrow polychromatic erythrocytes; experiment: Bone marrow MNPCE and PCE/(PCE+NCE) in CPA-treated mice; conditions: LPC 1, DW286 0.5, Mix 0.75 mg/kg
# Protocol: (§3) In Intact control animals, equal volume of saline was only dosed instead of CPA with same methods.
# In brief, bone marrow cells were collected from aforementioned femur in 3 ml of inactivated fetal bovine serum (GIBCO BRL, USA), centrifuged, and smeared on slide. Preparations were dried, and fixed by submerging in absolute methanol (for 10˜20 min). Fixed slides were stained as follow:
# Slides were randomly coded and examined under×1000 magnification by two different experts. Small round or oval shaped bodies, size of which ranging about ⅕ to 1/20 of diameter of PCE, were counted as micronuclei. Attention was given to discriminate micronuclei from artifacts. Results were expressed as the number of MNPCEs in 1000 PCEs. Mean number of MNPCE±S.D. was calculated for each treatment group.
# as §2
# [6] = Body weight of CPA-treated mice (Example 9); s.c. 4 times 12-hr intervals from 24 hrs after last CPA-dosing; conditions: LPC 1, DW286 0.5, Mix 0.75 mg/kg
# Protocol: In the INTACT control group, an equal volume of physiological saline was dosed instead of CPA by the same method.
# as §3, §1
# CPA-Treat Model: Body weight at sacrifice—at initial dosing (2 days)
# To find suitable dosing regime of LPC and DW286AA combination during the development of new therapeutic agents against sepsis, evaluation was conducted by using CPA-CLP— and CPA-induced immunosuppressive mice. […] Then, mortalities, changes in thymus and spleen weights, changes in white blood cell (WBC) number, and changes in thymic and splenic CD3+, CD4+, CD8+, and TNF-α+ cell numbers, were evaluated together with changes in bone marrow polychromatic erythrocytes contain micronuclei (MNPCE) number.
# as §2
# [7] = LPC 1, DW286 0.5, Mix 0.75 mg/kg
# [8] = thymus cortex, CPA-treated mice, Mean ± S.D., n = 9
# [9] = thymus medulla, CPA-treated mice, Mean ± S.D., n = 9
# [10] = At First CPA dosing (overnight fasted)
substance,measurement,setting,value
Lysophosphatidylcholine [LPC],Mortalities,[1]; 1st CPA treat,0
same,Survivalities,[1]; 1st CPA treat,100%
same,Mortalities,[1]; 2nd CPA treat,0
same,Survivalities,[1]; 2nd CPA treat,100%
same,Mortalities,[1]; At CLP (day 0),0
same,Survivalities,[1]; At CLP (day 0),100%
same,Mortalities,[1]; Day 1,2
same,Survivalities,[1]; Day 1,80%
same,Mortalities,[1]; Day 2,5
same,Survivalities,[1]; Day 2,30%
same,Mortalities,[1]; Day 3,2
same,Survivalities,[1]; Day 3,10%
same,Mortalities,[1]; Total,9
same,Survivalities,[1]; Total,10%
same,"atrophic changes (decreases in lymphoid cells in the thymic cortex), FIG. 7","[2]; CPA-treated model, in words",effectively inhibited
same,"splenic atrophy and decrease in lymphoid cells, FIG. 8","[2]; CPA-treated model, in words",effectively inhibited
same,Spleen: Number of white pulps,[2]; [7],"12.56 ± 1.81*^,# N/histological sections"
same,Thymus: Incidences of thymic cortex atrophy (atrophic changes/total observed number of thymus),[2]; [7],8/9 (88.89%)
same,incidences of decrease of lymphoid cells in the thymic cortex,[2]; [7],88.89%
same,"numbers of white pulps of spleen, change compared to CPA control",[2]; [7],101.79%
same,"numbers of thymic cortex CD3+ cells, change compared to CPA control",[3]; [7],328.69%
same,"numbers of thymic cortex CD4+ cells, change compared to CPA control",[3]; [7],408.70%
same,"numbers of thymic cortex CD8+ cells, change compared to CPA control",[3]; [7],11.11%
same,"numbers of thymic medulla CD3+ cells, change compared to CPA control",[3]; [7],12466.67%
same,"numbers of thymic medulla CD4+ cells, change compared to CPA control",[3]; [7],−9.09%
same,"numbers of thymic medulla CD8+ cells, change compared to CPA control",[3]; [7],−5.56%
same,"thymic cortex TNF-α+ cells, change compared to CPA control",[3]; [7],65.22%
same,"thymic medulla TNF-α+ cells, change compared to CPA control",[3]; [7],133.33%
same,"CD3+ cells, Thymus: Cortex (IHC-Histomorphometry)",[3]; [8],780.22 ± 85.78 N/1000 splenocytes or thymocytes
same,"CD4+ cells, Thymus: Cortex (IHC-Histomorphometry)",[3]; [8],"13.00 ± 2.45*^,# N/1000 splenocytes or thymocytes"
same,"CD8+ cells, Thymus: Cortex (IHC-Histomorphometry)",[3]; [8],3.33 ± 1.22 N/1000 splenocytes or thymocytes
same,"TNF-α+ cells, Thymus: Cortex (IHC-Histomorphometry)",[3]; [8],4.22 ± 1.20 N/1000 splenocytes or thymocytes
same,"CD3+ cells, Thymus: Medulla (IHC-Histomorphometry)",[3]; [9],"41.89 ± 10.23*^,# N/1000 splenocytes or thymocytes"
same,"CD4+ cells, Thymus: Medulla (IHC-Histomorphometry)",[3]; [9],2.22 ± 0.97 N/1000 splenocytes or thymocytes
same,"CD8+ cells, Thymus: Medulla (IHC-Histomorphometry)",[3]; [9],1.89 ± 0.60 N/1000 splenocytes or thymocytes
same,"TNF-α+ cells, Thymus: Medulla (IHC-Histomorphometry)",[3]; [9],1.33 ± 1.00 N/1000 splenocytes or thymocytes
same,Body weight,[4]; 1 day after CLP,30.10 ± 1.23 g
same,Body weight,[4]; 2 days after CLP,29.47 ± 1.46 g
same,Body weight,[4]; 3 days after CLP,31.40 ± 0.28 g
same,Body weight,[4]; At CLP (overnight fasted),32.98 ± 1.65 g
same,Body weight,[4]; [10],34.53 ± 1.24 g
same,"MNPCE numbers, change compared to CPA control",[5],−14.34%
same,"PCE/(PCE+NCE), change compared to CPA control",[5],−12.98%
same,NCE,[5]; among 500 erythrocytes,377.11 ± 22.32
same,PCE,[5]; among 500 erythrocytes,122.89 ± 22.32
same,PCE/(NCE + PCE),[5]; among 500 erythrocytes,0.25 ± 0.04
same,% MNPCE,[5]; among 1000 PCEs,2.46 ± 0.75 %
same,Body weight,[6]; 1 day after second CPA-dosing,36.54 ± 1.72 g
same,Body weight,[6]; 2 days after second CPA-dosing,37.04 ± 1.47 g
same,Body weight,[6]; At Dosing (overnight fasted),32.08 ± 1.47 g
same,Body weight,[6]; [10],36.58 ± 1.36 g
same,Body weight gains during 2 days after dosing,[6],4.97 ± 1.67 g
same,body weight (gains) change compared to the CPA control group,[6],−12.35%
